From patent US8148392B2, “2-indolyl imidazo [4,5-d] phenanthroline derivatives and their use in the treatment of cancer” (Lorus Therapeutics Inc., priority 2005, dated 2012)
Entries after “also recorded” stand apart in the source; their conditions may differ.

How the values were obtained:
[1] = tested on: 12 human tumour cell lines; experiment: Hollow fiber assay; assay type: in vivo, athymic mice; conditions: for net cell kill: cell lines with net cell kill
Description: For example, the in vivo activity of candidate compounds can also be tested using the Hollow Fiber Assay (Hollingshead, M., et al., (1995) Life Sciences 57:131-141; and Decker et al., Eur. J. of Cancer 40: 821-826 (2004)). In this assay, cells growing in hollow fibers (polyvinylidine fluoride, PVDF) are implanted in various body compartments of mice. A standard panel of 12 tumour cell lines can be used for the hollow fiber screening of candidate compounds which have shown activity in vitro. These cell lines may include NCI-H23, NCI-H522, MDA-MB-231, MDA-MB-435, SW-620, COLO 205, LOX-IMVI, UACC-62, OVCAR-3, OVCAR-5, U251 and SF-295. In addition, alternate lines such as those described in the above in vitro section can be used for specialized testing of compounds. The cell lines are cultivated according to standard protocols, and fibers are prepared by flushing cells into the PVDF fibers and sealing them at 2 cm intervals. The samples generated from these seals are placed into tissue culture medium and incubated at 37° C. in 5% CO2 for 24 to 48 hours prior to implantation. A total of 3 different tumour lines are prepared for each experiment so that each mouse receives 3 intraperitoneal implants (1 of each tumour line) and 3 subcutaneous implants (1 of each tumour line). On the day of implantation, samples of each tumour cell line preparation are quantitated for viable cell mass by, for example, a stable endpoint MTT assay, so that the time zero cell mass is known. Mice are treated with experimental agents starting on day 3 or 4 following fiber implantation and continuing daily for 4 days. Each agent is administered by intraperitoneal injection at 2 dose levels. The fibers are collected from the mice on the day following the fourth compound treatment and subjected to the stable endpoint MTT assay. The optical density of each sample is determined spectrophotometrically at 540 nm and the mean of each treatment group is calculated. The percent net growth for each cell line in each treatment group is calculated and compared to the percent net growth in the vehicle treated controls. A 50% or greater reduction in percent net growth in the treated samples compared to the vehicle control samples is considered a positive result. Each positive result is given a score of […] and all of the scores are totaled for a given compound. The maximum possible score for an agent is 96 (12 cell lines×2 sites×2 dose levels×2 [score]).
A candidate compound that is screened initially in the hollow fiber assay may subsequently be tested in a xenograft model if it has a combined ip+sc score of 20 or greater, a sc score of 8 or greater, or produces cell kill of any cell line at either dose level evaluated. This scoring system has been validated by DCTDC statisticians in CTEP to represent a level of detection expected to score current “standard” agents as active.
The in vivo efficacy of compounds according to Formula I was tested by determining the efficacy of compound 3 in the hollow fiber assay. This assay is described in Decker et al., Eur. J. of Cancer 40: 821-826 (2004), and was carried out by implanting 12 human tumour cell lines (Breast; MDA-MB-231, MDA-MB-435. Glioma; U251, SF-295. Ovarian; OVCAR-3, OVCAR-5. Colon; COLO-205, SW-620. Melanoma; LOX-IMVI, UACC-62 and Lung; NCI-H23, NCI-H522) into athymic mice as follows. Cell cultures were cultivated in RPMI-1640 containing 10% FBS and 2 mM glutamine. […]

[2] = tested on: CCRF-CEM leukemia cells; experiment: Apoptosis, annexin V-FITC/PI flow cytometry, CCRF-CEM; assay type: cell-based, human; conditions: 0.1-1 μM, 24 hours
Procedure: The ability of compound 3 to alter the population of cells at different stages of apoptosis was measured by determining the effect of compound 3 on populations of CCRF-CEM leukemia cells treated with vehicle (DMSO), 0.1 μM, 0.25 μM, 0.5 μM, or 1 μM of compound 3 for 24 hours. CCRF-CEM cells were seeded and treated with the above concentrations of compound 3 or 0.1% DMSO vehicle control as described in Example 23. After 24 hours, the cells were collected by centrifugation and re-suspended in growth media to approximately 1×10^6 cells/ml. Then the cells were stained for annexin V binding and PI staining using the annexin V-FITC apoptosis detection kit (Oncogene™ research products, Mass.) and following the manufacturer's RAPID Annexin V Binding protocol. The fluorescence of stained cells was analyzed using FACScan flow cytometer and the Cell Quest program (BD Biosciences, San Jose, Calif.). Data were evaluated using Modfit software (Verity software House, Topsham, Me.) to generate quadrant statistics. Cells stained with Annexin V only are considered to be in early apoptosis, whereas cells stained with both Annexin V and propidium iodide are considered to be in late apoptosis. Cells stained with propidium iodide only are non-viable, whereas no staining indicates viable cells. MOLT-4 leukemia cells were treated similarly.

[3] = tested on: fourth leukemia cell line (a myeloma cell line); experiment: NCI DTP in vitro screen, fourth leukemia cell line; assay type: cell-based; conditions: Homo sapiens
Procedure: For example, the following methodology, which is currently employed by the NCI, can be used to assess the GI50 of a candidate compound of Formula I in the selected cancer cell lines. Briefly, cell suspensions are diluted (5000-40,000 cells per well) and 100 μL of the diluted cell suspension is added into 96-well microtiter plates. Inoculates are allowed a preincubation period of 24 h at 37° C. for stabilization. Dilutions at twice the intended test concentration of the candidate compound are added at time zero in 100 μL aliquots to the microtiter plate wells. Test compounds are generally evaluated at five 10-fold dilutions. In routine testing, the highest well concentration is usually 10E-4 M, but this may be adjusted depending on the compound being tested. […] The cells are then assayed by using the sulforhodamine B assay (see, for example, Skehan, P., et al. (1990) JNCI, J. Natl. Cancer Inst. 82, 1107-1112; and Chen, S. F., et al. (1990) Proc. Am. Assoc. Cancer Res. 31, A2644) employing a plate reader which can be used to read the optical densities.
Compounds 2 and 3 were evaluated for their antiproliferative effects in a panel of 60 human cancer cell lines as part of the in vitro anticancer screening services provided by the DTP (Developmental Therapeutics Program) of the US National Cancer Institute (NCI).

Cc1[nH]c2ccccc2c1-c1nc2c3cccnc3c3ncccc3c2[nH]1 [Compound 3]
ip score ([1]; 2 dosages, 4 days treatment): 22 | sc score ([1]; 2 dosages, 4 days treatment): 10 | net cell kill [1]: positive cell killing; also recorded: one or more | net cell kill ([1]; listed as compound 3): positive cell kill | total score ([1]; ip + sc, maximum of 96): 32 | induction of apoptosis [2]: increase in the number of early and late apoptotic cells | GI50 [3]: 2880 nM
